# Assay results reported in patent US12624027B2, “Salts and polymorphic forms of 6-chloro-7-(4-(4-chlorobenzyl)piperazin-1-yl)-2-(1,3-dimethyl-1H-pyrazol-4-yl)-3H-imidazo[4,5-b]pyridine” (ELLIPSES PHARMA LTD, priority 2020, dated 2026).
# Experiment: Stability of the crystalline form in organic solvents and on handling (XRPD)
# Type: physicochemical
# Procedure: XRPD analysis was carried out on a PANalytical X'pert pro with PIXcel detector (128 channels), scanning the samples between 3 and 35° 2θ. The material was gently ground to release any agglomerates and loaded onto a multi-well plate with Kapton or Mylar polymer film to support the sample. The multi-well plate was then placed into the diffractometer and analyzed using Cu K radiation (α1 λ=1.54060 Å; α2=1.54443 Å; β=1.39225 Å; α1:α2 ratio=0.5) running in transmission mode (step size 0.01300 2θ, step time 18.87 s) using 40 kV/40 mA generator settings. Data were visualized and images generated using the HighScore Plus 4.7 desktop application (PANalytical, 2017).
# A slurry of Compound A fumarate lyophile is prepared by adding aliquots of solvent to the lyophile until a mobile slurry was observed. Solvents and volumes can be found in Table 1 below. The slurries are temperature cycled with agitation, between ambient (ca. 25° C.) and 40° C. in 4-hour cycles over 72 hours. Post-temperature cycling the samples were filtered via centrifugation. Isolated solids can be analysed by XRPD.
smiles,measurement,setting,value
"Cc1nn(C)cc1-c1nc2c(N3CCN(Cc4ccc(Cl)cc4)CC3)c(Cl)cnc2[nH]1 [Form 2, 6-chloro-7-(4-(4-chlorobenzyl)piperazin-1-yl)-2-(1,3-dimethyl-1H-pyrazol-4-yl)-3H-imidazo[4,5-b]pyridine]","change in form (XRPD peaks, spectra, unit cell)","1,4-dioxane and lyophilisation conditions","no change in the characteristic XRPD peaks, spectra, or unit cell"
"Cc1nn(C)cc1-c1nc2c(N3CCN(Cc4ccc(Cl)cc4)CC3)c(Cl)cnc2[nH]1 [Form 4, 6-chloro-7-(4-(4-chlorobenzyl)piperazin-1-yl)-2-(1,3-dimethyl-1H-pyrazol-4-yl)-3H-imidazo[4,5-b]pyridine]",stability in organic solvents (XRPD),"1,4-dioxane",stable
same,form change on drying,drying,converts to Form 2
"Cc1nn(C)cc1-c1nc2c(N3CCN(Cc4ccc(Cl)cc4)CC3)c(Cl)cnc2[nH]1 [Form 5, 6-chloro-7-(4-(4-chlorobenzyl)piperazin-1-yl)-2-(1,3-dimethyl-1H-pyrazol-4-yl)-3H-imidazo[4,5-b]pyridine]",change in form on handling in organic solvents (XRPD),benzyl alcohol,without any change in form
"Cc1nn(C)cc1-c1nc2c(N3CCN(Cc4ccc(Cl)cc4)CC3)c(Cl)cnc2[nH]1 [Form 6, 6-chloro-7-(4-(4-chlorobenzyl)piperazin-1-yl)-2-(1,3-dimethyl-1H-pyrazol-4-yl)-3H-imidazo[4,5-b]pyridine]",change in form on handling in solvent (XRPD),DMSO,without any change in form
"Cc1nn(C)cc1-c1nc2c(N3CCN(Cc4ccc(Cl)cc4)CC3)c(Cl)cnc2[nH]1 [Form 8, 6-chloro-7-(4-(4-chlorobenzyl)piperazin-1-yl)-2-(1,3-dimethyl-1H-pyrazol-4-yl)-3H-imidazo[4,5-b]pyridine]",stability in organic solvents,benzyl alcohol,stable
